Some results are limits rather than exact numbers.

Usually IC50 stands for the midpoint of a concentration-inhibition curve.

The test has as its target T1, Recombinant human farnesyl transferase (FTase) (Homo sapiens, UniProt P49356).
T1 construct: purchased Crelux (Martinsried, Germany)
The test is described as follows: FTase fluorescence assay (farnesylation of dansyl-GCVLS peptide). The format is biochemical. Conditions: recombinant human FTase 2.5 nM, Dansyl-GCVLS 85 nM, FPP 30 nM, 30° C., 50 minutes. The source says:
T24/83 cell line was purchased from the European Collection of Authenticated Cell Cultures (Salisbury, UK). Recombinant human farnesyl transferase (FTase) and geranylgeranyl transferase type-1 (GGTase) were obtained from Crelux (Martinsried, Germany). Dansyl labelled GCVLS peptide was purchased from Bachem (Torrance, CA), and Dansyl labelled GCVLL peptide was purchased from Bio Synthesis (Lewisville, TX). Farnesyl Pyrophosphate (FPP) and Geranylgeranyl pyrophosphate (GGPP) were purchased from Cayman (Ann Arbor, MI).
Specific biochemical activity of the compounds disclosed herein as FTase inhibitors was determined by measuring the ability of the compounds to block the farnesylation by recombinant FTase of fluorescent (i.e., dansyl-labeled) test substrates derived from the CAAX box of farnesylated proteins, such as the peptide GCVLS.
The IC50 value of the compounds disclosed herein as inhibitors of Ftase and/or GGTase, was determined by measuring the concentration (provided in nM) necessary to achieve inhibition of enzyme activity by 50% (IC50). […] Compounds having a low IC50 value against FTase, for example an IC50 (FTase)<100 nM, such as an IC50 (FTase)<10 nM, are preferred. Compounds having a low IC50 value against FTase and a high IC50 value against GGTase, for example an IC50 (FTase)<100 nM, such as an IC50 (FTase)<10 nM, and an IC50 (GGTase)>100 nM, are potent and selective inhibitors of FTase, and are particularly preferred.
The inhibition activities of the compounds disclosed herein against Ftase and GGTase were measured in the respective fluorescence assays as follows:
For the FTase assay, recombinant human FTase (2.5 nM), Dansyl labelled GCVLS peptide (85 nM), FPP (30 nM) and inhibitor were mixed in assay buffer (50 mM Tris, pH 7.5, 10 mM magnesium chloride, 10 μM zinc chloride, 0.08% CHAPS, 5 mM dithiothreitol) and incubated in a total volume of 20 μL at 30° C. for 50 minutes.
For both the FTase assay and GGTase assay, fluorescence intensity was detected (excitation at 340 nm and emission at 486 nm) using EnVision (PerkinElmer; Waltham, MA), IC50 determinations were performed using a sigmoidal dose-response model with Xlfit software (IDBS, Inc.; Boston, MA), and tipifarnib was used as a positive control. All the assay plates for each assay passed the QC criteria (S/B, Z factor).
With `[2H]C([2H])([2H])n1cncc1[C@@]1(O)c2ccc(C#N)c(c2)COc2cccc(c2)-c2cc(C#N)nc3ccc1cc23` [(S)-078, (S)-3-hydroxy-3-(1-(methyl-d3)-1H-imidazol-5-yl)-6-oxa-2(4,6)-quinolina-1,4(1,3)-dibenzenacyclohexaphane-2^2 4^4-dicarbonitrile], the IC50 is at most 10 nM.

Take `[2H]C([2H])([2H])n1c(=O)cc2c3cc(ccc31)[C@H](n1ncnc1C)c1ccc(Cl)c(c1)COc1cccc-2c1` [(S)-079, (S)-4^4-chloro-2^1-(methyl-d3)-3-(5-methyl-1H-1,2,4-triazol-1-yl)-2^1,2^2-dihydro-6-oxa-2(4,6)-quinolina-1,4(1,3)-dibenzenacyclohexaphan-2^2-one]: the IC50 was over 100 nM.

Turning to `[2H]C([2H])([2H])n1c(=O)cc2c3cc(ccc31)[C@H](n1cnc(C)n1)c1ccc(Cl)c(c1)COc1cccc-2c1` [(S)-080, (S)-4^4-chloro-2^1-(methyl-d3)-3-(3-methyl-1H-1,2,4-triazol-1-yl)-2^1,2^2-dihydro-6-oxa-2(4,6)-quinolina-1,4(1,3)-dibenzenacyclohexaphan-2^2-one], the IC50 lay within 10 to 100 nM.

As to `Cn1cncc1[C@@]1(N)c2ccc(C#N)c(c2)COc2cccc(c2)-c2nccc3ccc1cc23` [(S)-86, (S)-3-amino-3-(1-methyl-1H-imidazol-5-yl)-6-oxa-2(1,7)-isoquinolina-1,4(1,3)-dibenzenacyclohexaphane-4^4-carbonitrile], the IC50 was at most 10 nM.

As for `Cn1cncc1[C@@]1(N)c2ccc(C#N)c(c2)COc2cccc(c2)-c2cc(OC3COC3)nc3ccc1cc23` [(S)-89, (S)-3-amino-3-(1-methyl-1H-imidazol-5-yl)-2^2-(oxetan-3-yloxy)-6-oxa-2(4,6)-quinolina-1,4(1,3)-dibenzenacyclohexaphane-4^4-carbonitrile], the IC50 was at most 10 nM.

For `Cc1cn([C@@H]2c3ccc(C#N)c(c3)COc3cccc(c3)-c3cc(C#N)nc4ccc2cc34)cn1` [(S)-90, (S)-3-(4-methyl-1H-imidazol-1-yl)-6-oxa-2(4,6)-quinolina-1,4(1,3)-dibenzenacyclohexaphane-2^2,4^4-dicarbonitrile], the IC50 fell in the range of 10 to 100 nM.

Turning to `Cc1cncn1[C@@H]1c2ccc(C#N)c(c2)COc2cccc(c2)-c2cc(C#N)nc3ccc1cc23` [(S)-91, (S)-3-(5-methyl-1H-imidazol-1-yl)-6-oxa-2(4,6)-quinolina-1,4(1,3)-dibenzenacyclohexaphane-2^2,4^4-dicarbonitrile], the concentration for half-maximal inhibition (IC50) was over 100 nM.

In the case of `Cn1cncc1C1(O)c2cccc(c2)CCc2cccc(c2)-c2cc(=O)[nH]c3ccc1cc23` (stereo not drawn) [Compound 1, 3-hydroxy-3-(1-methyl-1H-imidazol-5-yl)-2^1,2^2-dihydro-2(4,6)-quinolina-1,4(1,3)-dibenzenacyclohexaphan-2^2-one], the IC50 fell in the range of 10 to 100 nM.

With `COc1cc2c3cc(ccc3n1)C(O)(c1cncn1C)c1ccc(C#N)c(c1)CCc1cccc-2c1` (stereo not drawn) [Compound 5, 3-hydroxy-2^2-methoxy-3-(1-methyl-1H-imidazol-5-yl)-2(4,6)-quinolina-1,4(1,3)-dibenzenacyclohexaphane-4^4-carbonitrile], the IC50 is at most 10 nM.

As for `COc1cc2c3cc(ccc3n1)C(O)(c1cncn1C)c1cccc(c1)OCc1cccc-2c1` (stereo not drawn) [Compound 10, 2^2-methoxy-3-(1-methyl-1H-imidazol-5-yl)-5-oxa-2(4,6)-quinolina-1,4(1,3)-dibenzenacyclohexaphan-3-ol], the IC50 is over 100 nM.

Turning to `COc1cc2c3cc(ccc3n1)C(O)(c1cncn1C)c1ccc(Cl)c(c1)OCc1cccc-2c1` (stereo not drawn) [Compound 12, 4^4-chloro-2^2-methoxy-3-(1-methyl-1H-imidazol-5-yl)-5-oxa-2(4,6)-quinolina-1,4(1,3)-dibenzenacyclohexaphan-3-ol], the IC50 was over 100 nM.

Regarding `COc1cc2c3cc(ccc3n1)C(O)(c1cncn1C)c1ccc(C#N)c(c1)OCc1cccc-2c1` (stereo not drawn) [Compound 16, 3-hydroxy-2^2-methoxy-3-(1-methyl-1H-imidazol-5-yl)-5-oxa-2(4,6)-quinolina-1,4(1,3)-dibenzenacyclohexaphane-4^4-carbonitrile], the IC50 is 10 to 100 nM.

The values above are taken from patent US12018011B2, “Macrocyclic compounds and compositions, and methods of preparing and using the same” (Kura Oncology, Inc., priority 2021, dated 2024).
